Earlier results on one compound are cited in patent US20080039428A1, “Antiretroviral combination therapy” (Panacos Pharmaceuticals, Inc., priority 2006, published 2008).

Each structure is given as a SMILES string.

The data set concerns HIV.

For the compound `C=C(C)[C@@H]1CC[C@]2(C(=O)O)CC[C@]3(C)[C@H](CC[C@@H]4[C@@]5(C)CC[C@H](OC(=O)CC(C)(C)C(=O)O)C(C)(C)[C@@H]5CC[C@]43C)[C@@H]12` [DSB, 3-O-(3′,3′-dimethylsuccinyl)betulinic acid], the “inhibition of HIV replication” value is reported as “potent inhibitor of HIV replication”.
